Measured values from patent US20220119354A1, “DIAMINO-SUBSTITUTED PYRIDINES AND PYRIMIDINES AS HERBICIDES” (FMC Corporation, priority 2019, published 2022).

Tests used:
Format in all cases: in vivo
[1] = test system: barnyardgrass (Echinochloa crus-galli); assay: Test A postemergence, barnyardgrass; conditions: 0 to 100 scale, 0 no effect, 100 complete control
Outline: (§1)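 Greenhouse evaluation: treated and untreated pots were held about 10 d, then injury was rated visually from 0 (no effect) to 100 (complete control). Application was preemergence to soil or postemergence to seedlings 2–10 cm tall, using a non-phytotoxic solvent formulation with surfactant.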

kochia (Kochia scoparia) [2] = assay: Test A postemergence, kochia; conditions: 0 to 100 scale, 0 no effect, 100 complete control
Outline: as §1

[3] = test system: foxtail, giant (Setaria faberii); assay: Test A preemergence, giant foxtail; conditions: 0 to 100 scale, 0 is no effect, 100 is complete control
Outline: as §1

[4] = test system: ducksalad (Heteranthera limosa); assay: Test B flooded paddy test, ducksalad; conditions: Flood, 250 g ai/ha, applied to paddy water, 2-leaf stage, visual evaluation after 13 to 15 d
Outline: (§2)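 Visual injury scores run from 0 (no effect) to 100 (complete control), assigned by comparison with controls 13 to 15 d after treatment. Treatment went into floodwater standing 3 cm over the soil of pots holding 2-leaf plants.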

[5] = test system: galium (catchweed bedstraw, Galium aparine); assay: Test A postemergence, galium; conditions: 0 to 100 scale, 0 no effect, 100 complete control
Outline: as §1

[6] = test system: pigweed (Amaranthus retroflexus); assay: Test A postemergence, pigweed; conditions: 0 to 100 scale, 0 no effect, 100 complete control
Outline: as §1

kochia (Kochia scoparia) [7] = assay: Test A preemergence, kochia; conditions: 0 to 100 scale, 0 is no effect, 100 is complete control
Outline: as §1

[8] = test system: blackgrass (Alopecurus myosuroides); assay: Test A postemergence, blackgrass; conditions: 0 to 100 scale, 0 no effect, 100 complete control
Outline: as §1

[9] = test system: barnyardgrass (Echinochloa crus-galli); assay: Test B flooded paddy test, barnyardgrass; conditions: Flood, 250 g ai/ha, applied to paddy water, 2-leaf stage, visual evaluation after 13 to 15 d
Outline: as §2

rice (Oryza sativa) = assay: Test B flooded paddy test, rice; conditions: Flood, 250 g ai/ha, applied to paddy water, 2-leaf stage, visual evaluation after 13 to 15 d
Outline: as §2

[10] = test system: pigweed (Amaranthus retroflexus); assay: Test A preemergence, pigweed; conditions: 0 to 100 scale, 0 is no effect, 100 is complete control
Outline: as §1

[11] = test system: barnyardgrass (Echinochloa crus-galli); assay: Test A preemergence, barnyardgrass; conditions: 0 to 100 scale, 0 is no effect, 100 is complete control
Outline: as §1

[12] = test system: sedge, umbrella (small-flower umbrella sedge, Cyperus difformis); assay: Test B flooded paddy test, umbrella sedge; conditions: Flood, 250 g ai/ha, applied to paddy water, 2-leaf stage, visual evaluation after 13 to 15 d
Outline: as §2

[13] = test system: ragweed (common ragweed, Ambrosia elatior); assay: Test A preemergence, ragweed; conditions: 0 to 100 scale, 0 is no effect, 100 is complete control
Outline: as §1

[14] = test system: ragweed (common ragweed, Ambrosia elatior); assay: Test A postemergence, ragweed; conditions: 0 to 100 scale, 0 no effect, 100 complete control
Outline: as §1

corn (Zea mays) = assay: Test A postemergence, corn; conditions: 0 to 100 scale, 0 no effect, 100 complete control
Outline: as §1

[15] = test system: ryegrass, Italian (Lolium multiflorum); assay: Test A preemergence, Italian ryegrass; conditions: 0 to 100 scale, 0 is no effect, 100 is complete control
Outline: as §1

[16] = test system: ryegrass, Italian (Lolium multiflorum); assay: Test A postemergence, Italian ryegrass; conditions: 0 to 100 scale, 0 no effect, 100 complete control
Outline: as §1

[17] = test system: wheat (Triticum aestivum); assay: Test A postemergence, wheat; conditions: 0 to 100 scale, 0 no effect, 100 complete control
Outline: as §1

[18] = test system: foxtail, giant (Setaria faberii); assay: Test A postemergence, giant foxtail; conditions: 0 to 100 scale, 0 no effect, 100 complete control
Outline: as §1

| SMILES | Plant response rating, Barnyardgrass ([1]; 125 g ai/ha) | Plant response rating, Barnyardgrass ([1]; 500 g ai/ha) | Plant response rating, Kochia (kochia (Kochia scoparia) [2]; 125 g ai/ha) | Plant response rating, Kochia (kochia (Kochia scoparia) [2]; 500 g ai/ha) | Foxtail, Giant plant response rating ([3]; 125 g ai/ha) | Foxtail, Giant plant response rating ([3]; 500 g ai/ha) | Plant response rating, Ducksalad (0 to 100 scale, 0 is no effect, 100 is complete control) [4] | Plant response rating, Galium ([5]; 125 g ai/ha) | Plant response rating, Galium ([5]; 500 g ai/ha) | Plant response rating, Pigweed ([6]; 125 g ai/ha) | Plant response rating, Pigweed ([6]; 500 g ai/ha) | Kochia plant response rating (kochia (Kochia scoparia) [7]; 125 g ai/ha) | Kochia plant response rating (kochia (Kochia scoparia) [7]; 500 g ai/ha) | Plant response rating, Blackgrass ([8]; 125 g ai/ha) | Plant response rating, Blackgrass ([8]; 500 g ai/ha) | Plant response rating, Barnyardgrass (0 to 100 scale, 0 is no effect, 100 is complete control) [9] | Plant response rating, Rice (0 to 100 scale, 0 is no effect, 100 is complete control) (rice (Oryza sativa)) | Pigweed plant response rating ([10]; 125 g ai/ha) | Pigweed plant response rating ([10]; 500 g ai/ha) | Barnyardgrass plant response rating ([11]; 125 g ai/ha) | also measured |
| --- | --- | --- | --- | --- | --- | --- | --- | --- | --- | --- | --- | --- | --- | --- | --- | --- | --- | --- | --- | --- | --- |
| CC[C@H](Nc1ncc(C(F)(F)F)c(N)n1)c1cc2ccc(F)cc2o1 [Compound 64] | 0 | 20 | 0 | 30 | 0 | 0 | 0 | 0 | 30 | 20 | 60 | 0 | 0 | 0 | 0 | 0 | 0 | 0 | 0 | 0 | Barnyardgrass plant response rating ([11]; 500 g ai/ha): 0; Plant response rating, Sedge, Umbrella (0 to 100 scale, 0 is no effect, 100 is complete control) [12]: 0; Ragweed plant response rating ([13]; 125 g ai/ha): 0; Ragweed plant response rating ([13]; 500 g ai/ha): 0; Plant response rating, Ragweed ([14]; 125 g ai/ha): 0; Plant response rating, Ragweed ([14]; 500 g ai/ha): 20; Plant response rating, Corn (corn (Zea mays); 125 g ai/ha): 0; Plant response rating, Corn (corn (Zea mays); 500 g ai/ha): 0; Ryegrass, Italian plant response rating ([15]; 125 g ai/ha): 0; Ryegrass, Italian plant response rating ([15]; 500 g ai/ha): 0; Plant response rating, Ryegrass, Italian ([16]; 125 g ai/ha): 0; Plant response rating, Ryegrass, Italian ([16]; 500 g ai/ha): 0; Plant response rating, Wheat ([17]; 125 g ai/ha): 0; Plant response rating, Wheat ([17]; 500 g ai/ha): 0; Plant response rating, Foxtail, Giant ([18]; 125 g ai/ha): 0; Plant response rating, Foxtail, Giant ([18]; 500 g ai/ha): 0 |
| C[C@@H](Nc1nc(N)c(C(F)(F)F)c(C(F)(F)F)n1)c1cc2ccccc2o1 [Compound 65] | 0 | 0 | 0 | 60 | 0 | 0 | 0 | 0 | 0 | 0 | 30 | 0 | 0 | 0 | 0 | 0 | 0 | 0 | 0 | 0 | Barnyardgrass plant response rating ([11]; 500 g ai/ha): 0; Plant response rating, Sedge, Umbrella (0 to 100 scale, 0 is no effect, 100 is complete control) [12]: 0; Ragweed plant response rating ([13]; 125 g ai/ha): 0; Ragweed plant response rating ([13]; 500 g ai/ha): 40; Plant response rating, Ragweed ([14]; 125 g ai/ha): 0; Plant response rating, Ragweed ([14]; 500 g ai/ha): 0; Plant response rating, Corn (corn (Zea mays); 125 g ai/ha): 0; Plant response rating, Corn (corn (Zea mays); 500 g ai/ha): 0; Ryegrass, Italian plant response rating ([15]; 125 g ai/ha): 0; Ryegrass, Italian plant response rating ([15]; 500 g ai/ha): 0; Plant response rating, Ryegrass, Italian ([16]; 125 g ai/ha): 0; Plant response rating, Ryegrass, Italian ([16]; 500 g ai/ha): 0; Plant response rating, Wheat ([17]; 125 g ai/ha): 30; Plant response rating, Wheat ([17]; 500 g ai/ha): 30; Plant response rating, Foxtail, Giant ([18]; 125 g ai/ha): 0; Plant response rating, Foxtail, Giant ([18]; 500 g ai/ha): 0 |
| C[C@H](Nc1nc(N)c(C(F)(F)F)c(C(F)(F)F)n1)c1cc2ccccc2o1 [Compound 66] | 0 | 30 | 20 | 90 | 0 | 0 | 0 | 30 | 40 | 30 | 100 | 0 | 0 | 0 | 30 | 0 | 0 | 0 | 0 | 0 | Barnyardgrass plant response rating ([11]; 500 g ai/ha): 0; Plant response rating, Sedge, Umbrella (0 to 100 scale, 0 is no effect, 100 is complete control) [12]: 0; Ragweed plant response rating ([13]; 125 g ai/ha): 0; Ragweed plant response rating ([13]; 500 g ai/ha): 0; Plant response rating, Ragweed ([14]; 125 g ai/ha): 0; Plant response rating, Ragweed ([14]; 500 g ai/ha): 20; Plant response rating, Corn (corn (Zea mays); 125 g ai/ha): 0; Plant response rating, Corn (corn (Zea mays); 500 g ai/ha): 20; Ryegrass, Italian plant response rating ([15]; 125 g ai/ha): 0; Ryegrass, Italian plant response rating ([15]; 500 g ai/ha): 0; Plant response rating, Ryegrass, Italian ([16]; 125 g ai/ha): 0; Plant response rating, Ryegrass, Italian ([16]; 500 g ai/ha): 0; Plant response rating, Wheat ([17]; 125 g ai/ha): 0; Plant response rating, Wheat ([17]; 500 g ai/ha): 0; Plant response rating, Foxtail, Giant ([18]; 125 g ai/ha): 0; Plant response rating, Foxtail, Giant ([18]; 500 g ai/ha): 0 |
| C[C@@H](Nc1nc(N)c(C(F)(F)F)c(C(F)(F)F)n1)C1Cc2ccccc2C1 [Compound 67] | 0 | 0 | 50 | 70 | 0 | 0 | 0 | 20 | 40 | 20 | 60 | 0 | 90 | 0 | 0 | 0 | 0 | 30 | 90 | 0 | Barnyardgrass plant response rating ([11]; 500 g ai/ha): 0; Plant response rating, Sedge, Umbrella (0 to 100 scale, 0 is no effect, 100 is complete control) [12]: 0; Ragweed plant response rating ([13]; 125 g ai/ha): 0; Ragweed plant response rating ([13]; 500 g ai/ha): 0; Plant response rating, Ragweed ([14]; 125 g ai/ha): 0; Plant response rating, Ragweed ([14]; 500 g ai/ha): 0; Plant response rating, Corn (corn (Zea mays); 125 g ai/ha): 0; Plant response rating, Corn (corn (Zea mays); 500 g ai/ha): 0; Ryegrass, Italian plant response rating ([15]; 125 g ai/ha): 0; Ryegrass, Italian plant response rating ([15]; 500 g ai/ha): 0; Plant response rating, Ryegrass, Italian ([16]; 125 g ai/ha): 0; Plant response rating, Ryegrass, Italian ([16]; 500 g ai/ha): 0; Plant response rating, Wheat ([17]; 125 g ai/ha): 0; Plant response rating, Wheat ([17]; 500 g ai/ha): 0; Plant response rating, Foxtail, Giant ([18]; 125 g ai/ha): 0; Plant response rating, Foxtail, Giant ([18]; 500 g ai/ha): 0 |
